# Measurements published in patent US20160304970A1, “GENE BIOMARKER TO DIAGNOSE METASTIC LIVER CANCER AND METHODS FOR TARGETING THE SAME” (University of Southern California, priority 2015, published 2016).
# What was measured:
# CD133 (+) Huh7 cells [1] = test: Tumor spheroid formation assay; assay type: cell-based, human; conditions: CD133 (+) group; ATRA 5 μg/ml, SAHA 0.5 μg/ml; 2 weeks
# Procedure: Freshly sorted CD133(+)/(−) Huh7 cells were plated in a low binding culture plate (NUNC 145397) containing 100 cells per well in 100 μl of culture medium with ATRA (5 μg/ml), SAHA (0.5 μg/ml), or a combination of both. After 2 weeks, colony numbers were counted.
# PTEN = PTEN 3′-UTR luciferase reporter and western blot of PTEN-FOXO pathway; assay type: cell-based; conditions: FIG. 47D
# CD133 (+) Huh7 cells [2] = test: Anchorage-independent growth assay in soft agar; assay type: cell-based, human; conditions: retinoic acid 5 μg/ml, SAHA 0.5 μg/ml; 2 weeks
# Procedure: Freshly sorted CD133 (+)/(−) Huh7 cells were mixed with 0.35% agarose containing 1000 cells per well in culture medium with retinoic acid (5 μg/ml), SAHA (0.5 μg/ml), or a combination of both. After 2 weeks, the colony numbers were counted.
# patient-derived TICs = test: Subcutaneous xenograft of patient-derived TICs in NSG mice; assay type: in vivo, mouse; conditions: no ATRA, i.p.
# Procedure: To establish prognostic biomarkers for the best combination chemotherapy, five different patient-derived TICs were tested for responses as xenografts in NSG mice for the best combination chemotherapy based on mutation/transcriptome subtypes. Anti-tumorigenic ability by ATRA+SAHA targeting TICs encapsulated with SAHA was validated (Table 3). […] As placebo treatment, solvent (DMSO) in an equal total volume (0.2 ml/mouse) was injected. Tumor growth kinetics was studied. Combination of ATRA with SAHA further inhibited the self-renewal abilities of TICs in vivo (FIG. 17E).
# [3] = tested on: Huh7, Hep3B, HepG2, human CSCs and mouse CSCs; test: Combination dose determination, cell viability of HCC cells; assay type: cell-based
# Procedure: Freshly sorted CD133 (+) Huh7 or mouse TICs were plated in 100 μl of medium containing 5000 cells per well in a 96-well plate. After 16 hours, 0.5 μl of a 2 μg/ml, 1 μg/ml, 0.2 μg/ml, 0.1 μg/ml, 0.02 μg/ml, or 0.01 μg/ml compound was added to each well in triplicate, resulting in a 10 μg/ml, 5 μg/ml, 1 μg/ml, 0.5 μg/ml, 0.1 μg/ml, and 0.05 μg/ml final concentration for most compounds, respectively. After 48 hours, the cells were either measured for cell viability by Cell-Glo® Reagent (Promega), or fixed with 1% PFA (paraformaldehyde) and stained with DAPI for high-throughput screening.
# Nanog = test: Nanog-GFP reporter cell screening; assay type: cell-based, mouse; conditions: TICs with lentivirus Nanog-GFP reporter
# Procedure: The Nanog-GFP liver cancer stem cell line was transduced with pGreenZeo-Nanog transcriptional reporter lentivirus vector (System Biosciences SR10031VA-1). The transduced cells were positively selected with zeomycin (10 μg/ml) and further sorted for the GFP-high population (˜20% of total population) for drug screening. Nanog-GFP liver cancer stem cells were then seeded in 100 μl medium containing 5000 cells per well in a 96-well plate. After 16 hours, 0.5 μl of a […] compound was added to each well, resulting in a 10 μg/ml final concentration for most compounds. After 12 hours, the cells were fixed with 1% Paraformadehyde and stained with DAPI; compounds were screened in duplicate. The GFP and DAPI images were acquired using a BD Pathway Bioimaging Systems instrument. Z-score was calculated from the data using the formula z=(X−u)/s.d., where u is the mean, s.d. is the standard deviation of the whole population and X is the sample value calculated based on the ratio of GFP intensity to DAPI intensity. The z-score of selected hits must be less than −1.0. The average of z-score of vehicle control is 2.0±1.04.
# CD133 (+) Huh7 cells [4] = test: In vivo tumorigenicity, CD133 (+) Huh7 cells in NOG mice; parameters: species or system mouse
# Procedure: The TUNEL staining was performed according to the manufacturer's instructions (4810-30-K, TREVIGEN). In brief, paraffin-embedded tumor sections from each group were de-paraffinized, re-hydrated, and washed twice in PBS. Samples were covered with Proteinase K solution for 30 minutes at room temperature and then washed two times in deionized water. Slides were immersed in quenching solution for 5 minutes at room temperature and then washed in PBS. Slides were incubated in TdT labeling buffer for 5 minutes, immersed with labeling reaction mix, and incubated at 37° C. for 1 hour in a humidity chamber. Samples were immersed in TdT stop buffer for 5 minutes and then washed twice in deionized water for 5 minutes each at room temperature. Samples were covered with Strep-HRP solution and incubated for 10 minutes at 37° C. and washed twice in PBS. Samples were incubated in DAB solution for 5 minutes and then washed in deionized water several times. The samples were counterstained with Methyl Green and mounted on slides for observation.
# CD133 was conjugated to the terminal amine functionality on a polyethylene glycol block of polylactide-polyethylene glycol (PLA-PEG) as previously described (Swaminathan et al., 2013). PLGA (30 mg) was dissolved in 1 ml chloroform containing ATRA (6 mg). An oil-in-water emulsion was formed by emulsifying the polymer drug solution in 6 ml of 2.5% w/v aqueous PVA solution by sonication (Sonicator®XL, Misonix, N.Y.) for 5 minutes in an ice bath. The PLA-PEG-CD133 conjugate was dissolved in chloroform (8 mg/100 μl) and added to the oil-in-water emulsion with stirring. The emulsion was stirred for 18 hours at ambient conditions followed by 2 hours under vacuum to remove residual chloroform. Nanoparticles were recovered by ultracentrifugation (35,000 rpm for 35 minutes at 4° C.; OptimaTMLE-80K, Beckman, Palo Alta, Calif.) and washed three times with deionized water to remove excess PVA and unencapsulated drugs. The nanoparticle suspension was then lyophilized (Labconco, FreeZone 4.5, Kansas City, Mo.). Before injection, the lyophilized nanoparticles were re-dissolved in PBS and filtered with a 0.22 micron filter.
# A half million freshly sorted CD133 (+) TICs were suspended in 100 μl of Matrigel™ (BD) and injected subcutaneously into NOD/Shi-scid/IL-2Rγ^null(NOG) mice, six mice per group. After the tumor volume reached 100 mm^3, animals received one intravenous dose of CD133-conjugated RA nanoparticle (5 μg/ml) and SAHA (0.5 μg/ml) daily. The animals were monitored regularly for tumor growth and survival every day. All animals work was performed according to national and international guidelines. Animal studies were based on a protocol approved by the Institutional Animal Care and Use Committee at University of Southern California.
structure (smiles),measurement,setting,value
"O=C(CCCCCCC(=O)Nc1ccccc1)NO [SAHA, suberoylanilide hydroxamic acid]","reduction of colony numbers, tumor spheroid formation",CD133 (+) Huh7 cells [1],66%
same,luciferase-PTEN 3′-UTR reporter activity,PTEN,increased
same,"reduction of colony numbers, anchorage independent growth in soft agar",CD133 (+) Huh7 cells [2],50%
same,"anti-tumorigenic ability, % (animals/total)",patient-derived TICs; SAHA 8 mg/kg (human: 300 mg),10% (2/20)
same,"anti-tumorigenic ability, % (animals/total)",patient-derived TICs; SAHA 10 mg/kg (human: 400 mg),5% (1/20)
same,"anti-tumorigenic ability, % (animals/total)",patient-derived TICs; SAHA 12 mg/kg (human: 500 mg),10% (2/20)
same,cell growth / viability in vitro,[3],failed to reduce cell growth in vitro
same,Nanog expression,Nanog,suppressed Nanog expression
same,tumor growth,"CD133 (+) Huh7 cells [4]; ATRA 5 μg/ml in CD133 antibody-conjugated nanoparticles, SAHA 0.5 μg/ml, after 4 days of treatment",did not reduce or even promote tumor growth
same,"tumor morphology, hematoxylin and eosin stained sections","CD133 (+) Huh7 cells [4]; NOG mice, CD133 (+) Huh7 tumors",did not induce cell death of tumor cells
